Patent publication US20070155660A1, “Inhibition of voluntary ethanol consumption with selective melanocortin 4-receptor agonists” (priority 2003, published 2007)
Bridge positions count the residues as written; N and C are the ends. Square brackets hold non-standard residues; d marks the D form. Peptide text beside a SMILES is read from it. βAla = NCCC(=O)O

Tests used:
[1] = target: T1, hMC-3R (Homo sapiens, UniProt P41968); assay: Competitive binding assay, [125I]-NDP-α-MSH, CHO cell membranes; conditions: read-out: Binding Assay IC50 hMC-3R
T1 construct: expressed in transfected cells; host or cells: Chinese hamster ovary (CHO) cells
Description: The peptides of the present invention were evaluated for […] in receptor binding assay. Crude membrane preparations were obtained from Chinese hamster ovary cells expressing human MC3, MC4, and MC5 receptors. Cells were rinsed with phosphate-buffered saline (PBS) lacking CaCl2 or MgCl2 (Life Technologies, Gaithersburg, Md., USA), and then detached with enzyme-free dissociation media (Specialty Media, Lavellette, N.J., USA). Cells were pelleted at 2800×g for 10 minutes and resuspended in membrane buffer (20 mM Tris, pH 7.2, 5 mM ethylenediaminetetraacetic acid) with 5 μg/ml leupeptin, 5 μg/ml aprotinin, 40 μg/ml bacitracin, and 25 μg/m pefabloc (Boehringer Mannheim). […]
Binding reactions (total volume=[…]) contained MBB (50 mM Tris, pH 7.2, 2 mM CaCl2, 1 mM MgCl2), 0.1% bovine serum albumin, crude membranes prepared from cells expressing human MC3, MC4, or MC5 receptor, 200 pM of [125I]-NDP-α-MSH (Amersham, Arlington Heighs, Ill., USA), and increasing concentrations of unlabeled test compounds dissolved in dimethylsulfoxide (final concentration=2%). […] Filters were washed 3 times with TNE buffer (50 mM Tris, pH 7.4, 5 mM ethylenediaminetetraacetic acid, 150 mM NaCl), dried and counted by using Microscint-20 in a Topcount scintillation counter (Packard). Nonspecific binding was determined in the presence of 2 μm of unlabeled NDP-α-MSH (Peninsula Laboratories). […]

[2] = target: T2, MC5R (Homo sapiens, UniProt P33032); assay: cAMP assay in CHO cells expressing a human melanocortin receptor; assay type: cell-based; parameters: expressed in transfected cells; host or cells: Chinese hamster ovary (CHO) cells
Description: (§1) Chinese hamster ovary cells expressing a human melanocortin receptor were rinsed with calcium-and magnesium-free PBS (Life Technologies), and detached from the tissue culture flasks by 5-minutes incubation with enzyme-free dissociation buffer (S-014-B, Specialty Media). Cells were collected by centrifugation and resuspended in Earle's balanced salt solution (Life Technologies) with addition of 10 mM 4-(2-hydroxyethyl)-1-piperazineethanesulfonic acid (Hepes) buffer, pH 7.5, 5 mM MgCl2, 1 mM glutamine, and 1 mg/ml bovine serum albumin to concentration of 1-5×10^6 cells/ml. Subsequently, cells were counted and the cell suspension was treated with the phosphodiesterase inhibitor 3-isobutyl-1-methylxanthine (to concentration of 0.6 mM).
(§2) A test compound was dissolved in dimethyl sulfoxide (DMSO, 10^−3 to 10^−8 M), diluted with buffer and 0.1 volume of the solution was added to 0.9 volumes of the cell suspension (1 to 5×10^5 cells); final concentration of DMSO was 1%. After 45 minutes at room temperature, cells were lysed by incubation at 100° C. for 5 minutes to release accumulated cAMP. Accumulation of cAMP was measured in an aliquot of the cell lysate with the Amersham (Arlington Heights, Ill.) cAMP detection assay kit (RPA556). The amount of cAMP produced in response to a tested compound was compared to the amount of cAMP produced in response to α-MSH, defined as a 100% agonist. All active peptides were characterized in three independent experiments.

[3] = target: T3, MC4R (Homo sapiens, UniProt P32245); assay: as above; assay type: cell-based; parameters: expressed in transfected cells; host or cells: Chinese hamster ovary (CHO) cells
Description: as §1, §2

[4] = target: T4, hMC-1R (Homo sapiens, UniProt Q01726); assay: as above; assay type: cell-based
T4 construct: expressed in transfected cells; host or cells: Chinese hamster ovary (CHO) cells
Description: as §1
as §2, with “All active peptides were characterized in three independent experiments.” left out

[5] = target: T1, hMC-3R; assay: as above; assay type: cell-based
Description: as §1
as §2, with “All active peptides were characterized in three independent experiments.” left out

[6] = target: T2, MC5R; assay: Competitive binding assay, [125I]-NDP-α-MSH, CHO cell membranes; parameters: expressed in transfected cells; host or cells: Chinese hamster ovary (CHO) cells; conditions: read-out: Binding Assay IC50 hMC-5R
Description: (§3) The peptides of the present invention were evaluated for […] in receptor binding assay. Crude membrane preparations were obtained from Chinese hamster ovary cells expressing human MC3, MC4, and MC5 receptors. Cells were rinsed with phosphate-buffered saline (PBS) lacking CaCl2 or MgCl2 (Life Technologies, Gaithersburg, Md., USA), and then detached with enzyme-free dissociation media (Specialty Media, Lavellette, N.J., USA). Cells were pelleted at 2800×g for 10 minutes and resuspended in membrane buffer (20 mM Tris, pH 7.2, 5 mM ethylenediaminetetraacetic acid) with 5 μg/ml leupeptin, 5 μg/ml aprotinin, 40 μg/ml bacitracin, and 25 μg/m pefabloc (Boehringer Mannheim). The cells were […] with 10 strokes by using a motor-driven Teflon-coated pestle in a glass homogenizer at low speed. The resulting cell suspension was centrifuged at 4100×g, 4° C., for 20 minutes. The pellet was resuspended in fresh membrane buffer with protease inhibitors, aliquoted, snap-frozen in liquid nitrogen, and stored at −80° C. The resulting crude membranes were titrated to determine the optimal level necessary for performing binding studies. Results
(§4) Binding reactions (total volume=[…]) contained MBB (50 mM Tris, pH 7.2, 2 mM CaCl2, 1 mM MgCl2), 0.1% bovine serum albumin, crude membranes prepared from cells expressing human MC3, MC4, or MC5 receptor, 200 pM of [125I]-NDP-α-MSH (Amersham, Arlington Heighs, Ill., USA), and increasing concentrations of unlabeled test compounds dissolved in dimethylsulfoxide (final concentration=2%). Reactions were incubated for 1 hour without shaking and then filtered through 96-well filter plates (Packard), presoaked in 1% polyethyleneimine. Filters were washed 3 times with TNE buffer (50 mM Tris, pH 7.4, 5 mM ethylenediaminetetraacetic acid, 150 mM NaCl), dried and counted by using Microscint-20 in a Topcount scintillation counter (Packard). Nonspecific binding was determined in the presence of 2 μm of unlabeled NDP-α-MSH (Peninsula Laboratories). Active peptides were evaluated in three independent experiments.

[7] = target: T3, MC4R; assay: as above; parameters: expressed in transfected cells; host or cells: Chinese hamster ovary (CHO) cells
Description: as §3, §4

T3 sequence (P32245 whole entry): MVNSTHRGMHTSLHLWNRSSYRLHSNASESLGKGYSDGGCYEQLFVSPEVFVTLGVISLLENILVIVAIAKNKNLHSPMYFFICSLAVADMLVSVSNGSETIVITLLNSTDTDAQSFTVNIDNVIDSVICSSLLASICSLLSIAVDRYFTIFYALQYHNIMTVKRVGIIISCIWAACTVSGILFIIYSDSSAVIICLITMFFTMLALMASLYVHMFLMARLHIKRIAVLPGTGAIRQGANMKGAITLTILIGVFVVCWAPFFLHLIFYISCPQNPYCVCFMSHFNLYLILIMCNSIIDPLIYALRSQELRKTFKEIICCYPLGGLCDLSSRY
T1 sequence (P41968 whole entry): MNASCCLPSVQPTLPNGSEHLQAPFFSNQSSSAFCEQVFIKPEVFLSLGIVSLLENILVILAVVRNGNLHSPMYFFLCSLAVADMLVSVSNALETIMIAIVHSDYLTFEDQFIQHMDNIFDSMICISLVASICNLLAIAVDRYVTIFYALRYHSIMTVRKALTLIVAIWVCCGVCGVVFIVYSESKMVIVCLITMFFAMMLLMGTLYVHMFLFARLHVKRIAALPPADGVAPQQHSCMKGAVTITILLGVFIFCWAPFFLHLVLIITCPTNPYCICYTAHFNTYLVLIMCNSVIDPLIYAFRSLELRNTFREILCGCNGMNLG
T2 sequence (P33032 whole entry): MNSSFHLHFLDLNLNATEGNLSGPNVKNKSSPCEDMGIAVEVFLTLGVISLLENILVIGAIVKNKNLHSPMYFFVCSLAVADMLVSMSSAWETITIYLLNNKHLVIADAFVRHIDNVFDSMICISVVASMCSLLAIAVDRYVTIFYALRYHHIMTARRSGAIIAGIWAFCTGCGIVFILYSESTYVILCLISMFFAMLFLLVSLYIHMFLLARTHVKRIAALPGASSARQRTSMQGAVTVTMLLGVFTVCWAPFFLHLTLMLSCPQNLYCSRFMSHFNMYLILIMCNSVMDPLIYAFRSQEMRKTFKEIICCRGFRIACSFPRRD
T4 sequence (Q01726 whole entry): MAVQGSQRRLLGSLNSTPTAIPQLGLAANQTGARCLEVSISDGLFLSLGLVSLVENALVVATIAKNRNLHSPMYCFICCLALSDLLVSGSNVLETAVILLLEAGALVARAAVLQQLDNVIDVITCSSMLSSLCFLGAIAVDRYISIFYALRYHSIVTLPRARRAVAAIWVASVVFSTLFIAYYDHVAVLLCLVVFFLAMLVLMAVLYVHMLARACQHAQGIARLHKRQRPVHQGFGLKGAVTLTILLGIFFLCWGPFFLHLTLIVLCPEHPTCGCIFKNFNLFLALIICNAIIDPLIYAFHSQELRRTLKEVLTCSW

Q: How did the IC50 [1] turn out when `N=C(N)NCCC[C@@H]1NC(=O)[C@@H](Cc2ccccc2)NC(=O)[C@H](Cc2c[nH]cn2)NC(=O)CCNC(=O)CC[C@@H](C(N)=O)NC(=O)[C@H](Cc2c[nH]c3ccccc23)NC1=O` [Example 8] ([βAla]H[dF]RWE-NH2; lactam N-6 (inferred)) was run?
A: 490 nM

Q: And the EC50 [2]?
A: 1900 nM

Q: What about the EC50 [3] of the same compound?
A: 0.53 nM

Q: And the “Selectivity cAMP EC50 1R/4R” value ([3]; ratio of EC50 hMC-1R / hMC-4R)?
A: 20.75

Q: What about the “Selectivity cAMP EC50 3R/4R” value ([3]; ratio of EC50 hMC-3R / hMC-4R) of the same compound?
A: 111

Q: What about the “Selectivity cAMP EC50 5R/4R” value ([3]; ratio of EC50 hMC-5R / hMC-4R) of the same compound?
A: 3585

Q: What about the EC50 [4] of the same compound?
A: 11 nM

Q: What about the EC50 [5] of the same compound?
A: 59 nM

Q: And the IC50 [6]?
A: 4600 nM

Q: What about the “Selectivity Binding IC50 3R/4R” value ([7]; ratio of IC50 hMC-3R / hMC-4R) of the same compound?
A: 122.5

Q: What about the “Selectivity Binding IC50 5R/4R” value ([7]; ratio of IC50 hMC-5R / hMC-4R) of the same compound?
A: 1150

Q: What about the IC50 ([7]; read-out: Binding Assay IC50 hMC-4R) of the same compound?
A: 4 nM
